Tests used:
[1] = test system: knee bone marrow lesions (BML); assay: clinical study in knee osteoarthritis with bone marrow lesions, BML size on MRI; assay type: in vivo, human; details: 5 mg intravenous; for average BML area decreased as compared to placebo: 6 months; for Change in BML Size / Change in BML Size, Difference from Placebo: baseline to 6 months
Excerpt: Some embodiments related to joint pain, bone marrow lesions, and osteoarthritis were conceived as a result of analyzing data from a clinical study. Some of the results of this study were reported by Laslett et al. in Ann Rheum Dis 2012; 71:1322-1328. Some of the description and data reported below was not published prior to filing the present application. Fifty-two (52) patients with clinical knee osteoarthritis and knee bone marrow lesions (BML) were randomized to receive either intravenous zoledronic acid (5 mg) or placebo in a double blind fashion. All patients had to have at least one bone marrow lesion (BML) in the affected knee on magnetic resonance imaging (MRI). All patients had x-ray of the knee for determination of joint space narrowing (JSN), which was graded according to the Osteoarthritis Research Society International (OARSI) atlas. Patients had either no joint space narrowing (OARSI Grade 0), or greater degrees of joint space narrowing (OARSI Grade 1 and Grade 2). Twenty six patients were treated with zoledronic acid (8, 6, and 12 with OARSI Grades 0, 1, and 2, respectively). Twenty six patients received placebo (8, 8, and 10 with OARSI Grades 0, 1 and 2, respectively).
BMLs were evaluated using proton density-weighted fat saturation MR images. BMLs were scored using Osiris software (University of Geneva, Geneva, Switzerland). The maximum size was measured in mm^2 using software cursors applied to the greatest area of each lesion. The lesion with the highest score was used if more than one was present at the same site. Each patient was given a BML score (mm^2) at each of the four sites (medial tibial, medial femoral, lateral tibial, and lateral femoral sites) and these were summed to create a total BML score (mm^2). The change in the total area of BMLs from baseline to 6 months was calculated.

[2] = test system: chronic low back pain (LBP) and Modic changes; assay: randomized placebo-controlled trial in chronic low back pain with Modic changes, low back symptoms and lumbar flexibility; assay type: in vivo, human; details: for Fingers-to-floor, Unadjusted analyses Difference (95% CI) / Intensity of LBP, Unadjusted analyses Difference (95% CI) / Intensity of leg pain, Unadjusted analyses Difference (95% CI) / Oswestry disability index, Unadjusted analyses Difference (95% CI) / Sidebending to left, Unadjusted analyses Difference (95% CI) / Sidebending to right, Unadjusted analyses Difference (95% CI) / Fingers-to-floor, Adjusted analyses Difference (95% CI) / Intensity of LBP, Adjusted analyses Difference (95% CI) / Intensity of leg pain, Adjusted analyses Difference (95% CI) / Oswestry disability index, Adjusted analyses Difference (95% CI) / Sidebending to left, Adjusted analyses Difference (95% CI) / Sidebending to right, Adjusted analyses Difference (95% CI): ZA versus placebo; for Fingers-to-floor, Adjusted analyses Difference (95% CI) / Intensity of LBP, Adjusted analyses Difference (95% CI) / Intensity of leg pain, Adjusted analyses Difference (95% CI) / Oswestry disability index, Adjusted analyses Difference (95% CI) / Sidebending to left, Adjusted analyses Difference (95% CI) / Sidebending to right, Adjusted analyses Difference (95% CI): adjusted for baseline; for Intensity of LBP, Mean (SD) original values: 10 cm VAS
Description: A study was performed to evaluate the efficacy of a single intravenous infusion of 5 mg ZA in comparison with intravenous placebo infusion among patients with chronic low back pain (LBP) and Modic changes on MRI. This study was a double-blinded, randomized, placebo-controlled clinical trial in patients with low back pain (LBP). Patients were included in the study if they had low back symptoms for at least three months, an LBP of at least six (6) on a 10-cm Visual Analog Scale (VAS) or an Oswestry Disability Index (ODI) of at least 30%, and an M1, mixed M1/2 or M2 type change on MRI performed within six months at most prior to enrolment.
Patients were excluded from the study if they had renal impairment with reduced creatinine clearance defined as an estimated glomerular filtration rate (eGFR) below 40 ml/min, hypocalcemia, known hypersensitivity to zoledronic acid or other bisphosphonates or ingredients of the infusion product, the presence of red flags, nerve root entrapment or willingness for early retirement. Premenopausal women of childbearing potential were also excluded. Blood samples were taken prior to the infusion to assess the serum concentration of calcium and creatinine. The clinical examination included medical history and clinical assessment of lumbar flexibility, tendon signs, and motor and sensory testing.
After confirmation of eligibility patients were randomized to receive a single intravenous infusion of 5 mg zoledronic acid (n=20) or 100 ml saline as placebo (n=20) over a 15-minute period. Information on use of the concomitant medication and hospital admissions were recorded. Blood samples were taken for the assessment of safety, inflammatory mediators and markers of bone turnover at baseline, one month and one year.
Clinical assessments were performed 14 days before enrolment (screening visit), and follow-up visits at one month and one year after the infusion. The primary outcome was the change in the intensity of LBP on VAS. Secondary outcomes included leg pain intensity, ODI, health-related quality of life assessed with RAND-36, patient-reported sick leaves and lumbar flexibility. These outcome measures were assessed at baseline and at each follow-up. Lumbar flexibility was evaluated using the fingers-to-floor and trunk side bending measures (in cm). The percentage of patients undergoing a 20% relative improvement, the proportion of patients reaching a VAS score of 40 or less in the primary outcome, and patient acceptable symptom state (PASS) were also assessed. Pain medication use was inquired about during the follow-up visits.

[3] = 12 mos., single 5 mg IV infusion
[4] = one month, single 5 mg IV infusion

O=P(O)(O)C(O)(Cn1ccnc1)P(=O)(O)O [zoledronic acid]
average BML area decreased as compared to placebo ([1]; OARSI Grade 0): approximately 190 mm^2
average BML area decreased as compared to placebo ([1]; OARSI Grades 1-2): approximately 33 mm^2
Change in BML Size ([1]; OARSI Grade 0): −244 mm^2
Change in BML Size, Difference from Placebo ([1]; OARSI Grade 0): −190 mm^2
Change in BML Size ([1]; OARSI Grades 1-2): −117 mm^2
Change in BML Size, Difference from Placebo ([1]; OARSI Grades 1-2): −33 mm^2
Fingers-to-floor, Unadjusted analyses Difference (95% CI) ([2]; 1 mo.): 5.0 (−4.8 to 15) cm
Intensity of LBP, Unadjusted analyses Difference (95% CI) ([2]; 1 mo.): 1.3 (−0.2 to 2.8)
Intensity of leg pain, Unadjusted analyses Difference (95% CI) ([2]; 1 mo.): 0.8 (−0.9 to 2.4)
Oswestry disability index, Unadjusted analyses Difference (95% CI) ([2]; 1 mo.): 4.3 (−2.5 to 11) %
Sidebending to left, Unadjusted analyses Difference (95% CI) ([2]; 1 mo.): −1.5 (−3.2 to 0.1) cm
Sidebending to right, Unadjusted analyses Difference (95% CI) ([2]; 1 mo.): −2.0 (−4.3 to 0.4) cm
Fingers-to-floor, Adjusted analyses Difference (95% CI) ([2]; 1 mo.): 3.6 (−5.0 to 12) cm
Intensity of LBP, Adjusted analyses Difference (95% CI) ([2]; 1 mo.): 1.4
Intensity of leg pain, Adjusted analyses Difference (95% CI) ([2]; 1 mo.): 0.8 (−0.6 to 2.2)
Oswestry disability index, Adjusted analyses Difference (95% CI) ([2]; 1 mo.): 6.0%
Sidebending to left, Adjusted analyses Difference (95% CI) ([2]; 1 mo.): −1.7 (−3.4 to 0.0) cm
Sidebending to right, Adjusted analyses Difference (95% CI) ([2]; 1 mo.): −2.0 (−4.4 to 0.3) cm
Intensity of LBP, Adjusted analyses Difference (95% CI) ([2]; 1 mo., listed as ZA): 1.4 (0.01 to 2.9)
Oswestry disability index, Adjusted analyses Difference (95% CI) ([2]; 1 mo., listed as ZA): 6.0 (−0.6 to 13) %
Fingers-to-floor, Mean (SD) change ([2]; 1 mo., single 5 mg IV infusion): −5.1 (20) cm
Fingers-to-floor, Mean (SD) original values ([2]; 1 mo., single 5 mg IV infusion): 17 (17) cm
Intensity of LBP, Mean (SD) change ([2]; 1 mo., single 5 mg IV infusion): −2.2 (2.7)
Intensity of leg pain, Mean (SD) change ([2]; 1 mo., single 5 mg IV infusion): −0.6 (2.4)
Intensity of leg pain, Mean (SD) original values ([2]; 1 mo., single 5 mg IV infusion): 2.0 (2.3)
Oswestry disability index, Mean (SD) change ([2]; 1 mo., single 5 mg IV infusion): −5.9 (11) %
Oswestry disability index, Mean (SD) original values ([2]; 1 mo., single 5 mg IV infusion): 24 (10) %
Sidebending to left, Mean (SD) change ([2]; 1 mo., single 5 mg IV infusion): 1.1 (3.0) cm
Sidebending to left, Mean (SD) original values ([2]; 1 mo., single 5 mg IV infusion): 16.1 (5.3) cm
Sidebending to right, Mean (SD) change ([2]; 1 mo., single 5 mg IV infusion): 1.5 (4.7) cm
Sidebending to right, Mean (SD) original values ([2]; 1 mo., single 5 mg IV infusion): 15.7 (5.9) cm
Intensity of LBP, Mean (SD) original values ([2]; 1 mo., single 5 mg IV infusion): 4.3 (2.3)
Fingers-to-floor, Unadjusted analyses Difference (95% CI) ([2]; 12 mos.): 7.1 (−4.3 to 18) cm
Intensity of LBP, Unadjusted analyses Difference (95% CI) ([2]; 12 mos.): 0.6 (−1.1 to 2.4)
Intensity of leg pain, Unadjusted analyses Difference (95% CI) ([2]; 12 mos.): 0.6 (−1.5 to 2.7)
Oswestry disability index, Unadjusted analyses Difference (95% CI) ([2]; 12 mos.): 3.1 (−5.6 to 12) %
Sidebending to left, Unadjusted analyses Difference (95% CI) ([2]; 12 mos.): −0.7 (−3.5 to 2.1) cm
Sidebending to right, Unadjusted analyses Difference (95% CI) ([2]; 12 mos.): −1.6 (−4.3 to 1.1) cm
Fingers-to-floor, Adjusted analyses Difference (95% CI) ([2]; 12 mos.): 5.3 (−4.5 to 15) cm
Intensity of LBP, Adjusted analyses Difference (95% CI) ([2]; 12 mos.): 0.7
Intensity of leg pain, Adjusted analyses Difference (95% CI) ([2]; 12 mos.): 0.5 (−1.3 to 2.2)
Oswestry disability index, Adjusted analyses Difference (95% CI) ([2]; 12 mos.): 5.1 (−3.4 to 14) %
Sidebending to left, Adjusted analyses Difference (95% CI) ([2]; 12 mos.): −1.0 (−3.8 to 1.8) cm
Sidebending to right, Adjusted analyses Difference (95% CI) ([2]; 12 mos.): −1.7 (−4.2 to 0.8) cm
Intensity of LBP, Adjusted analyses Difference (95% CI) ([2]; 12 mos., listed as ZA): 0.7 (−1.0 to 2.4)
Fingers-to-floor, Mean (SD) change [2, 3]: −6.3 (23) cm
Fingers-to-floor, Mean (SD) original values [2, 3]: 16 (16) cm
Intensity of LBP, Mean (SD) change [2, 3]: −2.8 (2.9)
Intensity of leg pain, Mean (SD) change [2, 3]: −0.9 (3.4)
Intensity of leg pain, Mean (SD) original values [2, 3]: 2.1 (2.8)
Oswestry disability index, Mean (SD) change [2, 3]: −5.0 (15) %
Oswestry disability index, Mean (SD) original values [2, 3]: 25 (13) %
Sidebending to left, Mean (SD) change [2, 3]: 1.2 (5.3) cm
Sidebending to left, Mean (SD) original values [2, 3]: 16.2 (6.7) cm
Sidebending to right, Mean (SD) change [2, 3]: 1.6 (4.8) cm
Sidebending to right, Mean (SD) original values [2, 3]: 15.7 (5.6) cm
Intensity of LBP, Mean (SD) original values [2, 3]: 3.8 (2.5)
Pain Reduction, VAS Change from Baseline ([2]; Baseline VAS < 6, single 5 mg IV infusion): −0.1 cm
Pain Reduction, VAS Change from Baseline ([2]; Baseline VAS ≥ 6 and <7, single 5 mg IV infusion): −2.3 cm
Pain Reduction, VAS Change from Baseline ([2]; Baseline VAS ≥ 7, single 5 mg IV infusion): −3.4 cm
mean reduction in pain from baseline ([2]; baseline pain intensity <6, single 5 mg IV infusion): 0.1
mean reduction in pain from baseline ([2]; baseline pain intensity ≥7, single 5 mg IV infusion): 3.4
proportion of patients reaching patient acceptable symptom state (PASS) [2, 4]: 50%
proportion of patients with at least 20% improvement in intensity of LBP [2, 4]: 55%
patients using NSAIDs ([2]; one year, single 5 mg IV infusion): 20%

— patent US20240108641A1, “COMPOSITIONS FOR ORAL ADMINISTRATION OF ZOLEDRONIC ACID OR RELATED COMPOUNDS FOR TREATING DISEASE” (ANTECIP BIOVENTURES II LLC, priority 2012, published 2024)
